Data on 51 compounds can be found in article PMC11358092, “Caspofungin enhances the potency of rifampin against Gram-negative bacteria” (Frontiers in Microbiology, 2024).

Molecules are shown by their SMILES. Structures can show the parent of a compound that is named as a salt.

In the test the test system is E. coli MG1655. Description: High-throughput screening of FDA-approved drug library for antibiotic adjuvants (growth inhibition, OD600). The format is cell-based, Escherichia coli. The note with it: library drug alone, LB medium, 96-well, 8 h static culture at 37°C, relative to PMBN (positive) and DMSO (negative) controls, %, table head prints no unit. As for the experimental part:
To screen for antibiotic adjuvants against GNB, […] library drugs or polymyxin B nonapeptide (PMBN, positive control) or dimethyl sulfoxide (DMSO, negative control). After 8 h of static culture at 37°C, the optical density at 600 nm (OD600) was measured using a microplate reader. Percentage inhibition was calculated as (ODN – ODX)/(ODN – ODP) × 100%, where ODX is the OD600 value for a test treated with drug X, and ODP and ODN are the OD600 values for the positive and negative control, respectively.
On to `CC1NCc2cc(-c3ccc4c(=O)c(C(=O)O)cn(C5CC5)c4c3OC(F)F)ccc21.CS(=O)(=O)O.O` (stereo not drawn) [Garenoxacin mesylate hydrate], for which the “Growth inhibition, Compound” value is recorded as 106%.

For the compound `CO[C@H]1/C=C/O[C@@]2(C)Oc3c(C)c(O)c4c(O)c(c5c(nc6cc(C)ccn65)c4c3C2=O)NC(=O)/C(C)=C\C=C\[C@H](C)[C@H](O)[C@@H](C)[C@@H](O)[C@@H](C)[C@H](OC(C)=O)[C@@H]1C` [Rifaximin], the “Growth inhibition, Compound” value was determined as 108%.

For `CO/N=C1\C[C@]2(C[C@@H]3C[C@@H](C/C=C(\C)C[C@@H](C)/C=C/C=C4\CO[C@@H]5[C@H](O)C(C)=C[C@@H](C(=O)O3)[C@]45O)O2)O[C@H](/C(C)=C/C(C)C)[C@H]1C` [Moxidectin], the “Growth inhibition, Compound” value is 32%. As for `C[C@@H]1O[C@@H]1P(=O)(O)O.NC(CO)(CO)CO` [Fosfomycin Tromethamine], the “Growth inhibition, Compound” value turned out to be 104%. Consider `CNC1CCCN(c2c(F)cc3c(=O)c(C(=O)O)cn(C4CC4)c3c2OC)C1` (stereo not drawn) [Balofloxacin], for which the “Growth inhibition, Compound” value was found to be 108%. With `CC1(C)S[C@@H]2[C@H](NC(=O)[C@H](N)c3ccc(O)cc3)C(=O)N2[C@H]1C(=O)[O-].[Na+]` [Amoxicillin Sodium], the “Growth inhibition, Compound” value is on record as 98%. For the compound `Cc1cc(C2CCCCC2)n(O)c(=O)c1.NCCO` [Ciclopirox ethanolamine], the “Growth inhibition, Compound” value worked out at 114%.

Consider `NC[C@H]1O[C@H](O[C@H]2[C@H](O[C@@H]3O[C@H](CO)[C@@H](O)[C@H]3O)[C@@H](O)[C@H](N)C[C@@H]2N)[C@H](N)[C@@H](O)[C@@H]1O.O=S(=O)(O)O` [Ribostamycin sulfate], for which the “Growth inhibition, Compound” value is 110%. For `CCCCCCCCc1ccc(CCC(N)(CO)CO)cc1` [Fingolimod], the “Growth inhibition, Compound” value worked out at 90%. The same measure for `C/C(=C\C(=O)OCCCCCCCCC(=O)[O-])C[C@@H]1OC[C@H](C[C@@H]2O[C@H]2[C@@H](C)[C@H](C)O)[C@@H](O)[C@H]1O.C/C(=C\C(=O)OCCCCCCCCC(=O)[O-])C[C@@H]1OC[C@H](C[C@@H]2O[C@H]2[C@@H](C)[C@H](C)O)[C@@H](O)[C@H]1O.O.O.[Ca+2]` [Mupirocin calcium]: 96%; for `Cc1oc(=O)oc1CN1CCN(c2cc3c(cc2F)c(=O)c(C(=O)O)c2n3C(C)S2)CC1` (stereo not drawn) [Prulifloxacin]: 100%; for `NC1CCN(c2nc3c(cc2F)c(=O)c(C(=O)O)cn3-c2ccc(F)cc2F)C1` (stereo not drawn) [Tosufloxacin]: 106%.

As to `NCc1ccccc1CC(=O)N[C@@H]1C(=O)N2C(C(=O)O)=C(CSc3nnnn3CC(=O)O)CS[C@H]12` [Ceforanide], the “Growth inhibition, Compound” value is listed as 94%. Consider `Nc1nc(/C(=N/O)C(=O)N[C@@H]2C(=O)N3C(C(=O)O)=C(/C=C4\CCN([C@@H]5CCNC5)C4=O)CS[C@H]23)ns1` [Ceftobiprole], for which the “Growth inhibition, Compound” value is given as 107%. The same measure for `CCO.C[C@H]1c2cccc(O)c2C(O)=C2C(=O)[C@]3(O)C(O)=C(C(N)=O)C(=O)[C@@H](N(C)C)[C@@H]3[C@@H](O)[C@@H]21.C[C@H]1c2cccc(O)c2C(O)=C2C(=O)[C@]3(O)C(O)=C(C(N)=O)C(=O)[C@@H](N(C)C)[C@@H]3[C@@H](O)[C@@H]21.Cl.Cl.O` [Doxycycline hyclate]: 112%; for `C[C@@H](O)[C@H]1C(=O)N2C(C(=O)O)=C(S[C@@H]3CN[C@H](CNS(N)(=O)=O)C3)[C@H](C)[C@H]12.O` [Doripenem Hydrate]: 77%. For the compound `C=CC1=C(C(=O)O)N2C(=O)[C@@H](NC(=O)/C(=N\OCC(=O)O)c3csc(N)n3)[C@H]2SC1` [Cefixime], the “Growth inhibition, Compound” value was 109%. Regarding `NCC[C@H](O)C(=O)N[C@@H]1C[C@H](N)[C@@H](O[C@H]2O[C@H](CN)[C@@H](O)[C@H](O)[C@H]2O)[C@H](O)[C@H]1O[C@H]1O[C@H](CO)[C@@H](O)[C@H](N)[C@H]1O.O=S(=O)(O)O.O=S(=O)(O)O` [Amikacin Sulfate Salt], the “Growth inhibition, Compound” value amounted to 107%.

With `[H]/N=C(/NCCCCC)N/N=C/c1c[nH]c2ccc(OC)cc12` [Tegaserod maleate], the “Growth inhibition, Compound” value is on record as 85%.

Regarding `COc1c(N2C[C@@H]3CCCN[C@@H]3C2)c(F)cc2c(=O)c(C(=O)O)cn(C3CC3)c12` [Moxifloxacin hydrochloride], the “Growth inhibition, Compound” value is 111%.

For the compound `Oc1c(I)cc(Cl)c2cccnc12` [Clioquinol], the “Growth inhibition, Compound” value is reported as 94%. Take `Cl.NC1CCN(c2nc3c(cc2F)c(=O)c(C(=O)O)cn3-c2ccc(F)cc2F)C1` (stereo not drawn) [Tosufloxacin hydrochloride]: the “Growth inhibition, Compound” value amounted to 103%. The same measure for `CC(OC(=O)OC1CCCCC1)OC(=O)C1=C(CSc2nnnn2CCN(C)C)CS[C@@H]2[C@H](NC(=O)Cc3csc(N)n3)C(=O)N12.Cl.Cl` (stereo partly drawn) [Cefotiam Hexetil Hydrochloride]: 87%. For `Nc1nc(F)nc2c1ncn2[C@@H]1O[C@H](COP(=O)(O)O)[C@@H](O)[C@@H]1O` [Fludarabine Phosphate], the “Growth inhibition, Compound” value came to 43%. For the compound `CCCCCCCCCCCCCCCC[N+](C)(C)C` [Cetrimonium bromide], the “Growth inhibition, Compound” value is given as 87%.

As to `O=c1[nH]cnc2c1ncn2[C@H]1CC[C@@H](CO)O1` [Didanosine], the “Growth inhibition, Compound” value came out at 41%. The same measure for `Cc1nnc(SCC2=C(C(=O)O)N3C(=O)[C@@H](NC(=O)Cn4cnnn4)[C@H]3SC2)s1` [Cefazolin]: 102%; for `CC1COc2c(N3CCN(C)CC3)c(F)cc3c(=O)c(C(=O)O)cn1c23` (stereo not drawn) [Ofloxacin]: 107%; for `CN[C@@H]1[C@@H](O)[C@@H](O[C@@H]2[C@@H](O)[C@H](O[C@H]3O[C@H](CN)[C@@H](O)[C@H](O)[C@H]3O)[C@@H](N)C[C@H]2NC(=O)[C@@H](O)CN)OC[C@]1(C)O` [Isepamicin sulfate]: 108%. The same measure for `COc1c(N2CCNC(C)C2)c(F)cc2c(=O)c(C(=O)O)cn(C3CC3)c12.Cl` (stereo not drawn) [Gatifloxacin hydrochloride]: 104%; for `[H]/N=C(\N/C(=N/[H])NCCCCCCNC(=N)NC(=N)Nc1ccc(Cl)cc1)Nc1ccc(Cl)cc1` [Chlorhexidine]: 101%. For `CCCN1C[C@H](C)[C@@H](O)[C@](C)(O)[C@@H](CC)OC(=O)[C@H](C)[C@@H](O[C@H]2C[C@@](C)(OC)[C@@H](O)[C@H](C)O2)[C@H](C)[C@@H](O[C@@H]2O[C@H](C)C[C@H](N(C)C)[C@H]2O)[C@](C)(O)C[C@H]1C` [Gamithromycin], the “Growth inhibition, Compound” value is on record as 96%. With `CO/N=C(\C(=O)N[C@@H]1C(=O)N2C(C(=O)O)=C(CSC(=O)c3ccco3)CS[C@H]12)c1csc(N)n1` [Sodium ceftiofur], the “Growth inhibition, Compound” value was 109%.

As to `Cc1ccc(S(=O)(=O)O)cc1.NC1CCN(c2nc3c(cc2F)c(=O)c(C(=O)O)cn3-c2ccc(F)cc2F)C1.O` (stereo not drawn) [Tosufloxacin p-Toluenesulfonate Hydrate], the “Growth inhibition, Compound” value is recorded as 99%. With `CO/N=C(\C(=O)N[C@@H]1C(=O)N2C(C(=O)O)=C(COC(N)=O)CS[C@H]12)c1ccco1` [Cefuroxime sodium], the “Growth inhibition, Compound” value was 95%. Take `C[C@@H]1CC[C@H]2[C@@H](C)C(=O)O[C@@H]3O[C@@]4(C)CC[C@@H]1[C@]32OO4` [Artemisinin]: the “Growth inhibition, Compound” value is listed as 40%. On to `Oc1c(Cl)cc(Cl)cc1Sc1cc(Cl)cc(Cl)c1O` [Bithionol], for which the “Growth inhibition, Compound” value turned out to be 86%. In the case of `CN1CCN(c2c(F)cc3c(=O)c(C(=O)O)cn(CCF)c3c2F)CC1` [Fleroxacin], the “Growth inhibition, Compound” value amounted to 109%. Consider `CCN1C(=O)C=CC1=O` [N-Ethylmaleimide], for which the “Growth inhibition, Compound” value came out at 106%. Regarding `CCn1cc(C(=O)O)c(=O)c2cnc(N3CCNCC3)nc21` [Pipemidic acid], the “Growth inhibition, Compound” value is reported as 105%.

Regarding `O=C(Nc1ccc([N+](=O)[O-])cc1Cl)c1cc(Cl)ccc1O` [Niclosamide], the “Growth inhibition, Compound” value is listed as 45%. `CC(=O)OCC1=C(C(=O)O)N2C(=O)[C@@H](NC(=O)Cc3cccs3)[C@H]2SC1` [Cephalotin acid]: the “Growth inhibition, Compound” value is on record as 92%. As for `CO/N=C(\C(=O)N[C@@H]1C(=O)N2C(C(=O)O)=C(CSc3nc(=O)c(=O)[nH]n3C)CS[C@H]12)c1csc(N)n1` [Ceftriaxone sodium], the “Growth inhibition, Compound” value was 114%.

`CCn1cc(C(=O)O)c(=O)c2cc3c(cc21)OCO3` [Oxolinic acid]: the “Growth inhibition, Compound” value amounted to 108%. The same measure for `N[C@@H](C(=O)N[C@@H]1C(=O)N2C(C(=O)O)=C(Cl)CS[C@H]12)c1ccccc1` [Cefaclor monohydrate]: 80%; for `CN(C)[C@@H]1C(O)=C(C(N)=O)C(=O)[C@@]2(O)C(O)=C3C(=O)c4c(O)ccc(Cl)c4[C@@](C)(O)[C@H]3C[C@@H]12` [Chlortetracycline hydrochloride]: 111%; for `CO[C@@]1(NC(=O)C(C(=O)O)c2ccc(O)cc2)C(=O)N2C(C(=O)O)=C(CSc3nnnn3C)CO[C@@H]21` (stereo partly drawn) [Latamoxef sodium]: 94%. On to `COCC1=C(C(=O)O)N2C(=O)[C@@H](NC(=O)/C(=N\OC)c3csc(N)n3)[C@H]2SC1` [Cefpodoxime (free acid)], for which the “Growth inhibition, Compound” value is reported as 108%. The same measure for `CO/N=C(\C(=O)N[C@@H]1C(=O)N2C(C(=O)O)=C(COC(C)=O)CS[C@H]12)c1csc(N)n1` [Cefotaxime]: 113%; for `O=C(Nc1cc(Cl)cc(Cl)c1O)c1c(O)c(Cl)cc(Cl)c1Cl` [Oxyclozanide]: 52%; for `CO/N=C(\C(=O)N[C@@H]1C(=O)N2C(C(=O)O)=C(C[n+]3cccc4c3CCC4)CS[C@H]12)c1csc(N)n1.O=S(=O)([O-])O` [Cefpirome sulfate]: 93%.
